{"source": "patent US20150361500A1", "about": "“BIOMARKERS FOR DIAGNOSIS AND TREATMENT OF ACNE VULGARIS” (DermTech International, priority 2013, published 2015)", "origin": "cited, not measured here", "tested_on": "acne", "data": [{"smiles": "O=C(OOC(=O)c1ccccc1)c1ccccc1", "note": "[Benzoyl peroxide]", "values": [{"measurement": "tolerability", "setting": "2.5% concentration compared with 5 and 10%", "result": "usually better tolerated"}, {"measurement": "effectiveness in acne treatment", "setting": "5 and 10% concentrations compared with 2.5%", "result": "not significantly more effective"}, {"measurement": "skin reactions", "setting": "gel or cream applied to affected areas", "result": "commonly causes initial dryness and sometimes irritation"}]}]}
